Laboratory results published in US10052304B2, “Compositions and methods for cancer therapy” (UNIVERSITY OF IOWA RESEARCH FOUNDATION, priority 2015, dated 2018).

What was measured:
NCI-H292 cells = assay: Clonogenic survival assay, NCI-H292 NSCLC cells; format: cell-based, human; conditions: for effect of the agent on ascorbate toxicity (clonogenic survival): agent added before and/or during 1 h ascorbate exposure; for effect of the intracellular agent on ascorbate toxicity (clonogenic survival): 3 h pre-incubation, washed prior to ascorbate ('intracellular'), 200 μM DFO/1 mM DTPA, 1 mM EDTA or 250 μM FAS
Protocol: (§1) Treatment conditions for individual experiments are as described in the figure legends and summarized in the Supplemental Experimental Procedures.
(§2) 1-2×10^5 cells were plated in 60 mm cell culture dishes and grown in their respective media for 48 h before exposed to experimental conditions. […] For AdGPx1 experiments, cells were supplemented with 50 nM sodium selenite following transduction and throughout clonogenic growth. […] After treatment, cells were washed with PBS and clonogenic assay was completed in their respective media. Briefly, floating and attached cells were collected and total cells per plate were counted. An experimentally derived number of cells were plated into each well of a 6-well cell culture plate in their respective media. For HEL92.1.7 suspension cells, cells were seeded in a top layer of 0.4% (w/v) agarose to allow for quantifiable colony formation. […] Normalized survival fractions were calculated by comparing plating efficiencies of each treatment group against the control group within a given experiment.

H1299 cells = assay: Clonogenic survival assay, H1299 NSCLC cells; format: cell-based, human; conditions: agent added before and/or during 1 h ascorbate exposure
Protocol: as §1, §2

[1] = system: human non-small cell lung cancer cells; assay: Clonogenic cell killing of lung cancer cells by ascorbate with chelators (cell line not given); format: cell-based
cancer cells = conditions: following exposure
NHA = conditions: FAS 3 h, washed, then ascorbate 1 h
Protocol: After treatment, cells were washed with PBS and clonogenic assay was completed in their respective media as previously described (Fath et al., 2011). Treatment conditions for individual experiments are as described in the figure legends and summarized in the Supplemental Experimental Procedures.
as §2, with “formation. After sufficient time (7-12 days, cell type-dependent), cells were fixed in 70% ethanol and stained with a Brilliant Blue methanol solution.” for “formation.”

NHAs = assay: Cellular labile iron pool (Calcein-AM flow cytometry), NHAs; format: cell-based, human; conditions: 100 μM or 250 μM FAS for 3 h
Protocol: The labile iron pool (LIP) was visualized using the fluorescent dye Calcein-AM as previously described (Epsztejn et al., 1997) with modifications. After labeling, samples were divided into two flow cytometry sample tubes, to which 100 μM 2′,2′-bipyridyl (BIP) was added to one tube and analyzed by flow cytometry. BIP tubes were incubated for at least 15 minutes before analysis to allow for full chelation of intracellular labile iron. The LIP (A.U.)=MFIBIP−MFINoBIP was normalized against the control samples to calculate the relative labile iron pool.
The labile iron pool (LIP) was visualized using the fluorescent dye Calcein-AM as previously described with modifications (Epsztejn et al., 1997). Briefly, after sample treatment, cells were trypsinized, spun at 1,200 rpm for 5 min, and resuspended at approximately 1×10^6 cells mL-1 in 500 nM Calcein-AM in PBS. Samples were incubated for 15 min at 4% O2 in a humidity controlled environment (37° C., 5% CO2). Subsequently, samples were pelleted, washed in PBS, and resuspended in 1 mL PBS before dividing each sample into two flow cytometry sample tubes, to which 100 μM 2′,2′-bipyridyl (BIP) was added to one tube. Samples were kept at room temperature and analyzed on a LSR II Flow Cytometer (BD Biosciences; λex=488 nm, λem=515/20 nm). […]

U87 cells = assay: Clonogenic survival assay, U87 GBM cells; format: cell-based, human; conditions: agent added before and/or during 1 h ascorbate exposure
Protocol: as §1, §2

U118 cells = assay: Clonogenic survival assay, U118 GBM cells; format: cell-based, human; conditions: agent added before and/or during 1 h ascorbate exposure
Protocol: as §1, §2

How did the “effect of the agent on ascorbate toxicity (clonogenic survival)” value (from here on “effect of the agent”) (NCI-H292 cells) turn out when `O=CC[C@@H](O)[C@H](O)[C@H](O)CO` [2-DG, 2-deoxy-D-glucose] was run?
The value was “did not suppress ascorbate toxicity”.

What about the “effect of the agent” value (H1299 cells) of the same molecule?
Its value is “did not suppress ascorbate toxicity”.

For `O=C(O)CN(CCN(CC(=O)O)CC(=O)O)CC(=O)O` [EDTA, ethylenediaminetetraacetic acid], which “effect of the intracellular agent on ascorbate toxicity (clonogenic survival)” value (NCI-H292 cells) is on record?
The value was “enhanced ascorbate toxicity”.

And the “effect of EDTA on cytotoxicity of pharmacological ascorbate” value ([1]; EDTA 1 mM and greater, cell culture)?
Its value is “significantly enhance the cytotoxicity of pharmacological ascorbate”.

What about the “enhanced ascorbate toxicity after EDTA pretreatment and wash-out” value ([1]; EDTA pretreatment followed by washing out) of the same molecule?
The value was “sufficient to get enhanced toxicity”.

And the clonogenic cell survival ([1]; high dose EDTA + pharmacological ascorbate + standard-of-care chemotherapy vs standard of care alone, two NSCLC cell lines)?
Its clonogenic cell survival is “decreases clonogenic cell survival”.

What about the “effect of iron chelators on ascorbate toxicity / response to therapy (FIG. 8)” value ([1]; lung cancer cells treated with ascorbate and iron chelators) of the same molecule?
The value was “enhance responses to cancer therapy”.

What about the “cellular retention of 14C labeled EDTA” value (cancer cells) of the same molecule?
Its value is “retained with cancer cells following exposure”.

Which results are given for `O=S(=O)([O-])[O-].O=S(=O)([O-])[O-].[Fe+2].[NH4+].[NH4+]` [FAS, ferrous ammonium sulfate]?
effect of the intracellular agent on ascorbate toxicity (clonogenic survival) (NCI-H292 cells): sensitized cancer cells to ascorbate; effect of the agent on ascorbate toxicity (clonogenic survival) (NHA): sensitizes NHAs to ascorbate toxicity; cellular LIP after FAS (NHAs): increases the LIP

B1: PEG-catalase: polyethylene glycol conjugated catalase which converts H2O2 into H2O and O2 (conjugate, UniProt P00432 2-527, looked up)
Catalase: ADNRDPASDQMKHWKEQRAAQKPDVLTTGGGNPVGDKLNSLTVGPRGPLLVQDVVFTDEMAHFDRERIPERVVHAKGAGAFGYFEVTHDITRYSKAKVFEHIGKRTPIAVRFSTVAGESGSADTVRDPRGFAVKFYTEDGNWDLVGNNTPIFFIRDALLFPSFIHSQKRNPQTHLKDPDMVWDFWSLRPESLHQVSFLFSDRGIPDGHRHMNGYGSHTFKLVNANGEAVYCKFHYKTDQGIKNLSVEDAARLAHEDPDYGLRDLFNAIATGNYPSWTLYIQVMTFSEAEIFPFNPFDLTKVWPHGDYPLIPVGKLVLNRNPVNYFAEVEQLAFDPSNMPPGIEPSPDKMLQGRLFAYPDTHRHRLGPNYLQIPVNCPYRARVANYQRDGPMCMMDNQGGAPNYYPNSFSAPEHQPSALEHRTHFSGDVQRFNSANDDNVTQVRTFYLKVLNEEQRKRLCENIAGHLKDAQLFIQKKAVKNFSDVHPEYGSRIQALLDKYNEEKPKNAVHTYVQHGSHLSAREKANL
modifications: PEG conjugate
notes: polyethylene glycol conjugated catalase which converts H2O2 into H2O and O2
With B1 as the molecule, how does the “effect of the agent” value (NCI-H292 cells) read?
Its value is “inhibited cancer cell killing by ascorbate”.

B2: catalase: exogenous bovine catalase, 50 U mL^−1, added with ascorbate (protein, UniProt P00432 2-527, looked up)
Catalase: B1 Catalase
B2 was tested. Which “effect of the agent” value (NCI-H292 cells) did it give?
The value was “inhibited”.

And the “effect of the agent” value (H1299 cells)?
The value was “inhibited”.

What about the “effect of the agent” value (U87 cells) of the same molecule?
Its value is “inhibited”.

And the “effect of the agent” value (U118 cells)?
The value was “inhibited”.
